One series has as its system HepG2/C3A spheroids. It is filed as cell-based, human. The protocol:
Quantitative Real Time Polymerase Chain Reaction (qRT-PCR). RNA was isolated and purified utilizing Macherey-Nagel NucleoSpin RNA II kit according to manufacturer instructions. RNA concentration and purity was determined using NanoDrop ND-1000 spectrophotometer (Thermo Fisher Scientific, USA). cDNA was synthesized from 1 μg RNA sample using qScript cDNA SuperMix (Quanta BioSciences, USA) according to the manufacturer protocol. Gene expression analysis was carried out utilizing KAPA SYBR FAST Universal 2X qPCR Master Mix (Kapa Biosystems, Boston, USA) on BioRad CFX96 Real-Time System (New South Wales, Australia), according to the manufacturer protocol. Gene transcription was evaluated using the ΔΔCt method normalized to 60S ribosomal protein L32 (RPL32) or ubiquitin C (UBC).

The subject of series [1] is HepG2/C3A cells. The series can be described thus: Electrochemical glucose and lactate sensing at the bioreactor outflow. The series is classed as cell-based, human. Particulars: 50 μM; for lactate over glucose ratio reached after exposure: before exposure 1.3 (rotenone), 1.2 (Troglitazone). The protocol:
Cells respond to mitochondrial dysfunction by adapting their metabolic response to circumvent oxidative phosphorylation. To track this response electrochemical sensors for glucose and lactate were attached to bioreactor outflow in a PMMA housing with 16 μl dead volume (FIG. 5 A-C). Samples were collected sequentially using a computer controlled microfluidic switchboard (FIG. 5D). Micromechanical valves (FIG. 5E) introduced a sequence of (1) washing buffer, (2) air bubble interface, and (3) a bioreactor sample every hour. Proof of principle was shown with 50 μM rotenone, a direct mitochondrial C1 inhibitor, causing an 80% loss in respiration (FIG. 5F). […] Importantly, the system is sensitive enough to detect minute signals and off target effects. […] Lactate over glucose ratio increases slightly from 1.2 to 1.8, showing a shift toward glycolysis (FIG. 5I).

A short description of a further series: in vitro. The following applies: human. The protocol:
(§1) Reactor Seeding. The following steps of cell seeding and reactor assembly were carried out in a sterile hood. Prior to seeding cells into the reactor, the PDMS-based well unit and all tubings were cleaned and sterilized with 70% EtOH, washed with ddH2O, dried and subsequently exposed to UV light for at least 30 min. The cells were detached from the tissue culture substrate with trypsin-EDTA (Biochrom, Berlin, Germany), counted, centrifuged at 280 rpm for 5 min at 4° C. and resuspended with 100 μl of collagen type I solution to a final density of 4×10^6 cells per device. During resuspension of the cells, 300 μg to 500 μg oxygen sensing beads (CPOx-50-RuP, Colibri Photonics, Potsdam, Germany) were added, resulting in at least ten to 20 beads per microwell after completion of the cell seeding protocol. The collagen type I solution was made of 560 μl ddH2O, 100 μl PBS (10×), 6.25 μl of 1 N NaOH and 333 μl of collagen type I (3.6 mg ml^−1, BD Biosciences, San Jose, Calif., USA). The PDMS microwells were primed for 5 min on ice with this solution in order to eliminate air bubbles from the wells. Subsequently, 100 μl of collagen type I suspension containing cells and oxygen-sensing beads was placed on top of the PDMS-based well unit, thus covering all nine microwells. The unit was kept in a sterile 50.8 mm petri dish placed on ice for 5 min in order to allow the cells to sediment into the wells. The low temperature prevented premature collagen polymerization and the induction of cellular stress response pathways. Afterwards, excess cell and microbead suspension was gently but thoroughly wiped off the PDMS-based well unit using a sterile glass coverslip (FIG. 2C) leading to a concentration of 100,000 cells/well. The inoculated well unit was then incubated for 5 min at 37° C. in a humidified cell incubator (see above) at 5% CO2 in order to polymerize the collagen and by this immobilize the cells and microbeads in the wells. Following polymerization, the well unit, loaded with the cells, was immersed in 5 ml of MEM medium (composition see above) for 20 min at 37° C. in a cell incubator (see above). Subsequently, the PDMS-based well unit was transferred into the bioreactor. After sealing, the bioreactor was placed into the climate control chamber (37° C., ACUO2, Evotec, Germany) of an inverted fluorescence microscope (IX81, Olympus, Japan) and perfused with MEM (composition see above) supplemented with 10 mM HEPES with a flow rate of 10 μl min^−1 using a syringe pump (Harvard Apparatus, USA). The automated and motorized microscope stage was equipped with a holder for three microreactors, allowing for performing three experiments simultaneously.
(§2) Chemical compound injection. […] Succinate as the substrate for complex II was used as an electron donor for the putatively toxicologically affected complex I in the mitochondrial electron transfer system (ETS), whereas TMPD was used to donate electrons to cytochrome c in order to test for a putative toxicological effect on complex III in the ETS. Ascorbate was used to maintain TMPD in a reduced state. The cytotoxic effects were evaluated by real-time monitoring of the change in oxygen consumption and for subsequent confirmation of the toxicological endpoints also by specific conventional staining assays (see below).
(§3) Oxygen measurement. Real-time oxygen measurements were performed optically by means of phosphorescence quenching. Biocompatible polystyrene microbeads with a diameter of 50 μm equipped with a ruthenium-phenanthroline-based phosphorescence dye (CPOx-50-RuP, Colibri Photonics, Potsdam, Germany) were used as microprobes and were coimmobilized with the cells (FIG. 1D) in the collagen matrix during reactor seeding (described above). The electronic measurement system (OPAL, Colibri Photonics, Germany) comprises a control module, an LED as the excitation source and a detector unit (FIG. 1A).

The subject of the next series is HeLa cells. Briefly: Real-time oxygen uptake of HeLa cells in the bioreactor. It is filed as cell-based, human. Particulars: for effect of ascorbate and TMPD on the loss of oxygen uptake: 10 μM, preincubation with 2 mM ascorbate and 0.5 mM TMPD. The text has this: Chemical compound injection.
Oxygen measurement. […] Thus, the camera port was kept available for imaging.

The subject of series [2] is HepG2/C3A cells. Briefly: in vitro. The following applies: for % of normal respiration: within 60 minutes (fast phase); for time to onset of mitochondrial (respiratory) damage: human. The protocol: as §1, §2, §3
Series [3] concerns HepG2/C3A cells. The series can be described thus: HCS LipidTOX staining for steatosis and phospholipidosis. The series is classed as cell-based, human. Particulars: 24 hr exposure to amiodarone (200 pM as printed elsewhere in the source). The protocol: Steatosis and phospholipidosis were evaluated using the HCS LipidTOX™ system (Life Technologies, USA) according to manufacturer directions. Briefly, cells were incubated with green neutral lipid and red phospholipidosis dyes and counterstained with 1 μg/mL Hoechst 33342 for 30 min, and washed with PBS. LipidTOX green and red staining intensity were normalized to number of Hoechst-labeled nuclei.

[4] abbreviates: HeLa cells, 12.5 mM acetaminophen.

The record followed here is patent US9657260B2, “Method and system for continous monitoring of toxicity” (Yissum Research Development Company of The Hebrew …, priority 2014, dated 2017).

Values joined by “and” are separate entries in the source; they are usually repeats but may differ in a detail not shown here. Equal entries are not always repeated. “Also recorded” adds a separate entry of the source.

As for `C[S+](C)[O-]` [DMSO], in the series with HepG2/C3A spheroids, the cell viability result is “little affect on cell viability” and the “increase in PXR expression” value amounted to 8 fold. The “increase in MRP3 expression” value in the series with HepG2/C3A spheroids (1%, 28 days) is given as 10 fold.
Turning to `Cc1c(C)c2c(c(C)c1O)CCC(C)(COc1ccc(CC3SC(=O)NC3=O)cc1)O2` (centres unmarked) [Troglitazone], the “lactate over glucose ratio reached after exposure” value in the series on HepG2/C3A cells [1] is given as 1.8. Moreover, the CC50 in “in vitro” worked out at 300 µM.
As to `CC(=O)Nc1ccc(O)cc1` [acetaminophen], the “mitochondrial respiration immediately after exposure” value in the series with HeLa cells (setting [4]) is reported as “identical rapid loss of mitochondrial respiration; also recorded: identical immediate loss of mitochondrial respiration”. Moreover, the “second dose-independent phase of toxicity” value in the series on HeLa cells (setting [4]) is given as “failed to display the second dose-independent phase of toxicity; also recorded: absent in HeLa cells”. In addition, the “time at which the rapid loss of respiration ends” value in the series with HeLa cells (setting [4]) was 60 min. Moreover, the “effect of ascorbate and TMPD on the toxic response” value in the series with HeLa cells (HeLa, 12.5 mM acetaminophen, 2 mM ascorbate and 0.5 mM TMPD) is on record as “eliminated the toxicity; also recorded: abrogated the toxic response”. In addition, the “effect of succinate on the toxic response” value in the series on HeLa cells (HeLa, 12.5 mM acetaminophen, preincubation with 20 mM succinate) is on record as “no effect on the toxicity; also recorded: did not affect HeLa response”. In addition, the “% of normal respiration” value was 70% in the series on HepG2/C3A cells [2] (8 mM acetaminophen), 55% in the series on HepG2/C3A cells [2] (12.5 mM acetaminophen) and 25% in the series with HepG2/C3A cells [2] (16 mM acetaminophen).
As to `CCCCc1oc2ccccc2c1C(=O)c1cc(I)c(OCCN(CC)CC)c(I)c1` [amiodarone], in the series on HepG2/C3A cells [3], the “increase in intracellular lipids (steatosis)” value is 2.1 fold and 2 fold and > 2 fold. Further, the increase in phospholipidosis in the series with HepG2/C3A cells [3] was 2.4 fold and 2.5 fold and > 2 fold. The “time to onset of mitochondrial (respiratory) damage” value in the series with HepG2/C3A cells [2] (200 µM) turned out to be 15 h; in the series with HepG2/C3A cells [2] (500 µM) it was 6 h; in the series with HepG2/C3A cells [2] (1000 µM), 2 h.
As to `C=C(C)[C@H]1Cc2c(ccc3c2O[C@@H]2COc4cc(OC)c(OC)cc4[C@@H]2C3=O)O1` [rotenone], the “glucose uptake after 6 hours” value in the series with HepG2/C3A cells [1] (after 6 hours, shift to glutaminolysis) was “loss of glucose uptake”. Moreover, the “lactate over glucose ratio reached after exposure” value in the series on HepG2/C3A cells [1] came to 2.5. In the series with HepG2/C3A cells [2] (50 μM), this molecule showed a loss in respiration of 80%.
For Antimycin A, the “effect of ascorbate and TMPD on the loss of oxygen uptake” value was “abrogated” in the series with HeLa cells (HeLa) and “abrogated the toxic response” with HeLa cells (HeLa, listed as antimycin A).
